In test [1] the test system is T1, Kinesin-like protein KIF11 (Homo sapiens), P52732 [A133D].
T1 sequence (whole entry): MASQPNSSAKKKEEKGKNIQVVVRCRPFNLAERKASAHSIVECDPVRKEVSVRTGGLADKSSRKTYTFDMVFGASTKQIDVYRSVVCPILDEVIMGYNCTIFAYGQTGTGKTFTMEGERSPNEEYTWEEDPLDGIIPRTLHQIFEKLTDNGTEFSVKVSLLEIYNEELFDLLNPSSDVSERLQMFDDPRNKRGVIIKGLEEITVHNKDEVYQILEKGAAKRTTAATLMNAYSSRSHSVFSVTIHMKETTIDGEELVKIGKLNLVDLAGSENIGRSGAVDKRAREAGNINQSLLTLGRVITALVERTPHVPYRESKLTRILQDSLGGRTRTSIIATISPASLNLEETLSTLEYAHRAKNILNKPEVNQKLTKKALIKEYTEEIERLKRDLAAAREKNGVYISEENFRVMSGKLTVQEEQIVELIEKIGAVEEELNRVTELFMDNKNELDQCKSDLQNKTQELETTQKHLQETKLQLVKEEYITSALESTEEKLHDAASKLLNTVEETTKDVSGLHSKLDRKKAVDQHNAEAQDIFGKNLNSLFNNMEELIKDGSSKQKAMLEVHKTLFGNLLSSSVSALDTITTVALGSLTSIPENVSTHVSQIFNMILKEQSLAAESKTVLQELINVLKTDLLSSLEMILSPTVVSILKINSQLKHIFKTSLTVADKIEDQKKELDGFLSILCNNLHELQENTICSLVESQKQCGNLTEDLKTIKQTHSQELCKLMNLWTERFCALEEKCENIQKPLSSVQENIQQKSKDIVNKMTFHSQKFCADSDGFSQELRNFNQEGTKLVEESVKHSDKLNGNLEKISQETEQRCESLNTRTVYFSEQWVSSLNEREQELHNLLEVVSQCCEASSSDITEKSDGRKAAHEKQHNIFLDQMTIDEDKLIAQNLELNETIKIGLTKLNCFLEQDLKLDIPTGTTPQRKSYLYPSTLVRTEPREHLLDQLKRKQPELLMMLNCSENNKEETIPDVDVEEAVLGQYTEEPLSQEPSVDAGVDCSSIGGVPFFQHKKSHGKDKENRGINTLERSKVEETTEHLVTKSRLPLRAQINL
Kind of test: Uncompetitive inhibition of human KSP A133D mutant with respect to microtubule using varying ATP levels in presence of saturating levels of microtubule by Lineweaver-Burke plot.

For test [2] the test system is unchanged. Kind of test: Competitive inhibition of human KSP A133D mutant with respect to ATP using varying ATP levels in presence of saturating levels of microtubule by Lineweaver-Burke plot.
Test [3] has as its target T2, Kinesin-like protein KIF11 (Homo sapiens) (UniProt P52732).
T2 sequence (whole entry): T1 sequence (whole entry) with D133A
Kind of test: Competitive inhibition of human Eg5 assessed as effect on ATPase activity using varying ATP levels in absence of microtubule by Lineweaver-Burke plot.

The target in test [4] is T3, Kinesin-like protein KIF11 (Homo sapiens, UniProt P52732).
T3 sequence (P52732 whole entry): T1 sequence (whole entry) with D133A
Kind of test: Inhibition of human wild type Eg5 using varying ATP levels in presence of saturating levels of microtubule by Lineweaver-Burke plot.

The species named for test [5] is Homo sapiens. The test is described as follows: Competitive inhibition of human KSP KHC-L5 mutant with respect to ATP using varying ATP levels in presence of saturating levels of microtubule by Lineweaver-Burke plot.

Broadly, the Ki is the equilibrium dissociation constant of an inhibitor or competing ligand from its target.

Positions count from the first letter of the chain named. Activity calls are given as the source filed them. The calls are words filed in the database; no cut-off is given here.

For `NC(=O)Nc1ccc(-c2ccc(C(F)(F)F)cc2)cc1F`, the inhibition result in test [1], in test [2] and in test [5] was “Active” in each case. In test [3], the inhibition entry is “inactive”. Also, the Ki in test [4] was 8.8 nM.

Consider `O=C1CCc2cc(-c3ccc(C(F)(F)F)cc3)ccc2N1`, for which the inhibition entry in test [1], in test [2] and in test [5] was “Active” in each case. Moreover, the inhibition entry in test [3] is “inactive”. In addition, in test [4], the Ki stood at 1.8 nM.

The values above are taken from ChEMBL document CHEMBL1221208, “ATP-competitive inhibitors of the mitotic kinesin KSP that function via an allosteric mechanism” (Nat Chem Biol, 2007).
